Source: US5342612A, “Compositions for the treatment of mammalian diseases” (priority 1991, dated 1994)

Experiments:
S. aureus mastitis = test: Therapy of S. aureus bovine mastitis (background); details: in vivo efficacy trials; in words
[1] = test system: Staphylococcus aureus mastitis (Newbould 305); test: Efficacy of lysostaphin formulated in vehicles as intramammary infusion against Staphylococcus aureus mastitis; assay type: in vivo, bovine (dairy cows)
Text: This experiment examines the ability of various lysostaphin formulations to eliminate S. aureus infections in the bovine mammary gland and compares the formulations with the testing of lysostaphin in a peanut oil-gel matrix, similar to that used in the commercial product CEFA-LAK®, which is used to treat mastitis in lactating dairy cows.
Lysostaphin is formulated in three vehicles: 15% w/v poloxamer 407 NF, 50% w/v glycerol or 10% w/v triacetin. Lysostaphin is also formulated in a peanut oil-gel matrix. These formulations are infused into the bovine mammary gland and the ability of these combinations to exact a biological response, either by curing the infection or by clearing the mammary gland temporarily of S. aureus, are assessed.
Recombinant lysostaphin is suspended in 10.0 mL of peanut oil vehicle or dissolved in 60.0 mL of appropriate sterile vehicle (sPBS) at a concentration of 10.0 mg/mL or 1.67 mg/mL, respectively. Each of 15% poloxamer 407 NF (PLURONIC® ACID F127, a polyoxyethylene-polyoxypropylene derivative, BASF Corporation, Parsippany, N.J.); 50% glycerol (Sigma Chemical Co., St. Louis, Mo.); and 10% triacetin (glyceryl triacetate, Sigma Chemical Co., St. Louis, Mo.) are prepared in sterile phosphate buffered saline.
Staphylococcus aureus infections of the mammary gland provide an excellent model system for evaluating therapeutic efficacy of a variety of pharmaceutical and biological agents for many infectious diseases of mammals. Therefore, experimental infections are established with S. aureus (strain Newbould 305). All mammary glands to be inoculated are free of pathogens and have individual quarter somatic cell counts (SCC) less than 200,000 cells/mL of milk. Inoculum is prepared from a four-hour culture grown in trypticase soy broth and diluted. Inoculations are made by infusion of 1.0 mL diluted culture containing 90 colony forming units of S. aureus (Newbould 305) into the teat cistern of a milked-out mammary quarter. Quarters which fail to establish an infection after six days from initial inoculation are reinfected.
Prepared in PBS is 50% glycerol and the solution is then sterile filtered (0.45μ). Poloxamer 407 NF is mixed overnight and prepared similarly. A 10% triacetin solution is prepared aseptically in sterile PBS. Appropriate amounts of lysostaphin is added so the final concentration is 1.67 mg/mL. All preparations are in a total volume of 60.0 mL and made the day of the infusion. All solutions are sterile filtered through a 0.45μ filter.
Duration of treatment: 3 consecutive PM milkings
Quarters are randomly assigned to one of six treatment groups. All quarters are infused with the appropriate vehicle (60.0 mL) with or without lysostaphin over three consecutive PM milkings. […]

S. aureus = test: Potentiation of bacteriostatic activity of lysostaphin by vehicles (checkered analysis); assay type: cell-based, Staphylococcus aureus
Text: In order to identify the nontoxic formulations for mammalian use, toxicity is employed as a method to eliminate direct bactericidal effects on the S. aureus, as well as potential toxic effects on the target animal. Compounds are formulated with r-lysostaphin at concentrations below toxic effects and compared to the bacteriostatic activity of r-lysostaphin in a saline formulation. Some compounds potentiate r-lysostaphin bacteriostatic activity by as much as 300-1000 fold.
Several surfactants, detergents, oils, emollients and membrane solubilizers are chosen as representative of various classes of compounds which may affect protein activity. These vehicles are then evaluated for toxicity and potentiation of the bacteriostatic effects of r-lysostaphin on S. aureus according to the methods described in the foregoing examples. […] Secondly, the vehicles are subjected to the toxicity test on murine cells in vitro. Viable cells are evaluated by trypan blue exclusion and normalized to an untreated control. Thereafter, dairy cattle are infused through the teat canal with various concentrations of the vehicle to make a determination of the irritation potential after intramammary infusion as a measure of mammalian toxicity. Milk samples are collected after infusion of said vehicles and the somatic cell count is determined. The Stimulation Index equals the post-infusion SCC divided by the pre-infusion SCC. The vehicles showing minimal toxicity to S. aureus and mammalian cells in vitro and in vivo are subsequent candidates for evaluation in the in vivo potentiation trials.
Various vehicle combinations are tested in a standard checkered analysis which simultaneously varies the concentration of both parameters to examine the individual contribution of each. Vehicles are all compared to r-lysostaphin in a saline solution, i.e., the potentiation index. […] Glycerol and triacetin, while only potentiating the activity of r-lysostaphin 6-8 fold, is manifested by bactericidal effects (see above Table IV).

mammary gland = details: bovine, in vivo
Procedure: Multiparous Holstein-Fresian dairy cattle cultured negative for infection and with individual quarter somatic cell counts less than 200,000 cells/mL are used. The lactating dairy cows receive a ration consisting of corn silage, alfalfa hay and concentrate which is formulated to provide recommended amounts of minerals and vitamins for a lactating dairy cow. Water is provided ad libitum.
The somatic cell count (SCC) of twelve normal glands are determined prior to treatment. Three groups of four quarters each receive an intramammary infusion of 10 mL to 60 mL of the respective vehicles identified in Example 1, 15% w/v poloxamer 407 NF (PLURONIC® F127), 50% w/v glycerol, 10% w/v triacetin (glyceryl triacetate) and the sPBS as a control. In vivo degree of irritation is measured by infusing a quarter of a mammary gland with the vehicle and measuring the SCC at 12, 36 and 60 hours after infusion. The data are expressed as the stimulation index which is calculated as the average experimental SCC divided by the control SCC.

[2] = Toxicity of formulations on mammalian cell lines (cell viability, Coulter); assay type: cell-based, murine; details: for viability at 6 h: Relative Toxicity at 6 Hours
Procedure: (§1) Cell Lines: A20: B-cell tumor cell line 9C127: T-cell hybridoma cell line LB/62287: B-cell lymphoma cell line P388.D1: Macrophage tumor cell line
(§2) Cell lines (1×10^5 /well; >85% viability) are cultured in 24 well flat bottom plates in RPMI® medium (Gibco Laboratories, Grand Island, N.Y.) supplemented with 10% fetal calf serum, streptomycin (100 μg/mL) and penicillin (100 U/mL). Cultures are incubated (37° C., 10% CO2) with the following concentrations of vehicles:
(§3) c) 1.0%, 0.1% or 0.01% Triacetin or IMWITOR®
(§4) After a 72 hour or 6 hour incubation period, cells are harvested and counted by the Coulter Counter (Northwell Drive, England). Cell viability is determined using a Coulter Channelyzer.
(§5) The relative toxicity of the sample formulations to estimate the relative degree of toxicity for in vivo administration is carried out in vitro with the mammalian cell lines. Various concentrations of the vehicles are incubated for either 6 or 24 hours with the different mammalian cell lines. Immediate toxicity is evaluated at 6 hours by quantitating the number of dead cells in treated wells as compared to the untreated controls. Long term toxicity effects as well as effects which may inhibit cell growth are evaluated by measuring the relative degree of proliferation after an additional 48 hours incubation with ^3 H-thymidine.

[3] = test system: LB/62287 (B-cell lymphoma cell line); test: as above; assay type: cell-based, murine
Procedure: as §1, §2, §3, §4, §5

[4] = test system: A20 (B-cell tumor cell line); test: as above; assay type: cell-based, murine
Procedure: as §1, §2, §3, §4, §5

Compound: lipopolysaccharide
- Clearing of the mammary gland of S. aureus (S. aureus mastitis): able to clear the mammary gland temporarily of S. aureus

Compound: CC(=O)OCC(COC(C)=O)OC(C)=O [Triacetin, glyceryl triacetate]
- % Cures ([1]; 100 mg lysostaphin infusions on three consecutive days): 25%
- Effect on potentiating the in vivo efficacy of lysostaphin ([1]; in words): Neither glycerol nor triacetin (both have a cure rate of 25%) has any significant effect
- Character of potentiation (S. aureus; in words (footnotes, text)): Potentiates the bactericidal activity of rlysostaphin
- Vehicle Conc. w/Max. Potentiation (%) (S. aureus; with r-lysostaphin): 10.0%
- Tolerability / irritation upon infusion (mammary gland): A small amount of irritation to some animals
- viability at 6 h ([2]; lb/62287 b-cell lymphoma): 75 to 90%
- viability at 72 h ([2]; lb/62287 b-cell lymphoma, Relative Toxicity at 72 Hours): 0 to 24%
- viability at 6 h ([2]; mouse, a20 cells): 75 to 90%
- Relative Toxicity at 6 Hours [3]: -
- Relative Toxicity at 72 Hours [3]: -
- Relative Toxicity at 6 Hours [4]: -
- Relative Toxicity at 72 Hours [4]: -
